Measurements published in ChEMBL document CHEMBL5463729, “Data for DCP probe BAY 1753011” (2023).

How the values were obtained:
[1] = molecular target: Activated CDC42 kinase 1 (Homo sapiens) (UniProt Q07912); experiment: Inhibition of ACK1(h) at 10.0 µM in the Eurofins Kinase panel; conditions: Compound concentration 10.0 uM
[2] = molecular target: ALK tyrosine kinase receptor (Homo sapiens) (UniProt Q9UM73); experiment: Inhibition of ALK(h) at 10.0 µM in the Eurofins Kinase panel; conditions: Compound concentration 10.0 uM
[3] = molecular target: Serine/threonine-protein kinase BRSK1 (Homo sapiens) (UniProt Q8TDC3); experiment: Inhibition of BrSK1(h) at 10.0 µM in the Eurofins Kinase panel; conditions: Compound concentration 10.0 uM
[4] = molecular target: Casein kinase I isoform gamma-3 (Homo sapiens) (UniProt Q9Y6M4); experiment: Inhibition of CK1gamma3(h) at 10.0 µM in the Eurofins Kinase panel; conditions: Compound concentration 10.0 uM
[5] = molecular target: Mitogen-activated protein kinase kinase kinase 8 (Homo sapiens) (UniProt P41279); experiment: Inhibition of COT(h) at 10.0 µM in the Eurofins Kinase panel; conditions: Compound concentration 10.0 uM
[6] = molecular target: Dual specificity tyrosine-phosphorylation-regulated kinase 1B (Homo sapiens) (UniProt Q9Y463); experiment: Inhibition of DYRK1B(h) at 10.0 µM in the Eurofins Kinase panel; conditions: Compound concentration 10.0 uM
[7] = molecular target: Tyrosine-protein kinase HCK (Homo sapiens) (UniProt P08631); experiment: Inhibition of Hck(h) activated at 10.0 µM in the Eurofins Kinase panel; conditions: Compound concentration 10.0 uM
[8] = molecular target: Insulin receptor-related protein (Homo sapiens) (UniProt P14616); experiment: Inhibition of IRR(h) at 10.0 µM in the Eurofins Kinase panel; conditions: Compound concentration 10.0 uM
[9] = molecular target: Tyrosine-protein kinase JAK1 (Homo sapiens) (UniProt P23458); experiment: Inhibition of JAK1(h) at 10.0 µM in the Eurofins Kinase panel; conditions: Compound concentration 10.0 uM
[10] = molecular target: Tyrosine-protein kinase JAK3 (Homo sapiens) (UniProt P52333); experiment: Inhibition of JAK3(h) at 10.0 µM in the Eurofins Kinase panel; conditions: Compound concentration 10.0 uM
[11] = molecular target: Serine/threonine-protein kinase MAK (Homo sapiens) (UniProt P20794); experiment: Inhibition of MAK(h) at 10.0 µM in the Eurofins Kinase panel; conditions: Compound concentration 10.0 uM
[12] = molecular target: Mitogen-activated protein kinase kinase kinase kinase 5 (Homo sapiens) (UniProt Q9Y4K4); experiment: Inhibition of MAP4K5(h) at 10.0 µM in the Eurofins Kinase panel; conditions: Compound concentration 10.0 uM
[13] = molecular target: MAP kinase-activated protein kinase 2 (Homo sapiens) (UniProt P49137); experiment: Inhibition of MAPK2(h) at 10.0 µM in the Eurofins Kinase panel; conditions: Compound concentration 10.0 uM
[14] = molecular target: Serine/threonine-protein kinase MARK1 (Homo sapiens) (UniProt Q9P0L2); experiment: Inhibition of MARK1(h) at 10.0 µM in the Eurofins Kinase panel; conditions: Compound concentration 10.0 uM
Serine/threonine-protein kinase MARK1 (Homo sapiens), sequence (Q9P0L2 whole entry, looked up): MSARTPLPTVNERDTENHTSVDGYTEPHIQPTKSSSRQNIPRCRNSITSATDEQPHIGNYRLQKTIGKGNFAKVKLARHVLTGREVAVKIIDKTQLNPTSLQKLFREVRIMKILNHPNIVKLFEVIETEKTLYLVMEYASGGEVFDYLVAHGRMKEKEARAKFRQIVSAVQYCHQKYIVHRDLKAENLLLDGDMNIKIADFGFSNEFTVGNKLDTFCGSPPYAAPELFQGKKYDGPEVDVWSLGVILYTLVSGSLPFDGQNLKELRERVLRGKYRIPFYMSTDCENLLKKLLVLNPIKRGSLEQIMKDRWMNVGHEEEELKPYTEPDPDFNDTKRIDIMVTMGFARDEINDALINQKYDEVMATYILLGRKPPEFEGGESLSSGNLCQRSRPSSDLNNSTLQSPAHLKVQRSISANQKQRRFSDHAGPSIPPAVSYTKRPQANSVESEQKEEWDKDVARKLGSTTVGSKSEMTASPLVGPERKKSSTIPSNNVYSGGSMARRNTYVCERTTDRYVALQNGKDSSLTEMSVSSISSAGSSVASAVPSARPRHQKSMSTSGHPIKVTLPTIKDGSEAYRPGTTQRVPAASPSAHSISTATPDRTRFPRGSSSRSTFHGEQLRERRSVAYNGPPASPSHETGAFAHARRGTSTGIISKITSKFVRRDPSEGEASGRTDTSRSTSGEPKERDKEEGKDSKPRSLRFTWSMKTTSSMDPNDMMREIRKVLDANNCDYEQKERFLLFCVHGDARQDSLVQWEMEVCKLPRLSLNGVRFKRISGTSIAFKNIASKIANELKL

[15] = molecular target: Dual specificity mitogen-activated protein kinase kinase 3 (Homo sapiens) (UniProt P46734); experiment: Inhibition of MKK3(h) at 10.0 µM in the Eurofins Kinase panel; conditions: Compound concentration 10.0 uM
[16] = molecular target: Mitogen-activated protein kinase kinase kinase 21 (Homo sapiens) (UniProt Q5TCX8); experiment: Inhibition of MLK4(h) at 10.0 µM in the Eurofins Kinase panel; conditions: Compound concentration 10.0 uM
[17] = molecular target: Serine/threonine-protein kinase MRCK alpha (Homo sapiens) (UniProt Q5VT25); experiment: Inhibition of MRCKalpha(h) at 10.0 µM in the Eurofins Kinase panel; conditions: Compound concentration 10.0 uM
[18] = molecular target: Serine/threonine-protein kinase MRCK beta (Homo sapiens) (UniProt Q9Y5S2); experiment: Inhibition of MRCKbeta(h) at 10.0 µM in the Eurofins Kinase panel; conditions: Compound concentration 10.0 uM
[19] = molecular target: Serine/threonine-protein kinase MRCK gamma (Homo sapiens) (UniProt Q6DT37); experiment: Inhibition of MRCKgamma(h) at 10.0 µM in the Eurofins Kinase panel; conditions: Compound concentration 10.0 uM
Serine/threonine-protein kinase MRCK gamma (Homo sapiens), sequence (Q6DT37 whole entry): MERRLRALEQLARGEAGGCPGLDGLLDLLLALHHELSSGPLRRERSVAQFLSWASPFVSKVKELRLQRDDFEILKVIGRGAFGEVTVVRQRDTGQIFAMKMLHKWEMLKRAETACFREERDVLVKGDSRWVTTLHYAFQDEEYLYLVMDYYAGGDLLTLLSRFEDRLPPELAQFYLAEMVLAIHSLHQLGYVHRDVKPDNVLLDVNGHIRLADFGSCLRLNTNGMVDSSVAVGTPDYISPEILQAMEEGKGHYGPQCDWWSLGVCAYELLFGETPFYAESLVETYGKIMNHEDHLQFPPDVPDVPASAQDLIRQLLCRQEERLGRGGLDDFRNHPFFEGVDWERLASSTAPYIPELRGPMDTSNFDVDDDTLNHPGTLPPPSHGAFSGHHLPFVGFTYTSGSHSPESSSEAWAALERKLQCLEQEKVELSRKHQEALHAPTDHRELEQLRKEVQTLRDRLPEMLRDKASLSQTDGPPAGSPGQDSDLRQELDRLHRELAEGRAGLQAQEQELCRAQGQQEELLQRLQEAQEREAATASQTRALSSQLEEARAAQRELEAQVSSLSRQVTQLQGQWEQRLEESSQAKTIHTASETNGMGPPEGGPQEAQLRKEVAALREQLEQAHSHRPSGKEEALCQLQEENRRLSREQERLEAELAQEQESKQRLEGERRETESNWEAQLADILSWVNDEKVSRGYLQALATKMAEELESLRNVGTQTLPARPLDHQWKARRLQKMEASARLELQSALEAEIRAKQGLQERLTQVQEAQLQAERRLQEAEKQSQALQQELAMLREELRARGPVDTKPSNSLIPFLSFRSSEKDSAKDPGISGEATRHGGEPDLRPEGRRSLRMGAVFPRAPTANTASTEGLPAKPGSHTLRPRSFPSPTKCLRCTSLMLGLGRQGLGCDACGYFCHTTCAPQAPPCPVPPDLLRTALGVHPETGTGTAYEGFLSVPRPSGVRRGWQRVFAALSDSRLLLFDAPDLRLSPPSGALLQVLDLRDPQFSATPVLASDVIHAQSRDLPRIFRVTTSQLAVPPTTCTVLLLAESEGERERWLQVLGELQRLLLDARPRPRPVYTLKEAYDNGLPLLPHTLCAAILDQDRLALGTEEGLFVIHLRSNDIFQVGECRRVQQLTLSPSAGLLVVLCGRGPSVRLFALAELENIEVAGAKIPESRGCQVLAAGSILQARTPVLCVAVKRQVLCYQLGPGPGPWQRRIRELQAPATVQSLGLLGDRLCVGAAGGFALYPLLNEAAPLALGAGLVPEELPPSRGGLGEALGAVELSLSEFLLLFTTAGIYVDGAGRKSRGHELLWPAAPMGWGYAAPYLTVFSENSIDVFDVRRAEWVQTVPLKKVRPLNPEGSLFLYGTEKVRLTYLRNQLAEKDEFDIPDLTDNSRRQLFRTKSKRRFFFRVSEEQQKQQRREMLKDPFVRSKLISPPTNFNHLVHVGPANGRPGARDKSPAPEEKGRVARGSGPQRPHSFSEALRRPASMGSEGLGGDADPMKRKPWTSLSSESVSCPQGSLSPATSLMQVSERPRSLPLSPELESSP

[20] = molecular target: Serine/threonine-protein kinase 26 (Homo sapiens) (UniProt Q9P289); experiment: Inhibition of MST4(h) at 10.0 µM in the Eurofins Kinase panel; conditions: Compound concentration 10.0 uM
[21] = molecular target: Myosin-IIIb (Homo sapiens) (UniProt Q8WXR4); experiment: Inhibition of MYO3B(h) at 10.0 µM in the Eurofins Kinase panel; conditions: Compound concentration 10.0 uM
[22] = molecular target: Serine/threonine-protein kinase Nek9 (Homo sapiens) (UniProt Q8TD19); experiment: Inhibition of NEK9(h) at 10.0 µM in the Eurofins Kinase panel; conditions: Compound concentration 10.0 uM
[23] = molecular target: Eukaryotic translation initiation factor 2-alpha kinase 3 (Homo sapiens) (UniProt Q9NZJ5); experiment: Inhibition of PEK(h) at 10.0 µM in the Eurofins Kinase panel; conditions: Compound concentration 10.0 uM
[24] = molecular target: RAC-gamma serine/threonine-protein kinase (Homo sapiens) (UniProt Q9Y243); experiment: Inhibition of PKBgamma(h) at 10.0 µM in the Eurofins Kinase panel; conditions: Compound concentration 10.0 uM
[25] = molecular target: Serine/threonine-protein kinase D2 (Homo sapiens) (UniProt Q9BZL6); experiment: Inhibition of PKD2(h) at 10.0 µM in the Eurofins Kinase panel; conditions: Compound concentration 10.0 uM
[26] = molecular target: Serine/threonine-protein kinase PLK4 (Homo sapiens) (UniProt O00444); experiment: Inhibition of Plk4(h) at 10.0 µM in the Eurofins Kinase panel; conditions: Compound concentration 10.0 uM
[27] = molecular target: Serine/threonine-protein kinase N2 (Homo sapiens) (UniProt Q16513); experiment: Inhibition of PRK2(h) at 10.0 µM in the Eurofins Kinase panel; conditions: Compound concentration 10.0 uM
[28] = molecular target: Proto-oncogene tyrosine-protein kinase receptor Ret (Homo sapiens) (UniProt P07949); experiment: Inhibition of Ret(h) at 10.0 µM in the Eurofins Kinase panel; conditions: Compound concentration 10.0 uM
[29] = molecular target: Ribosomal protein S6 kinase alpha-2 (Homo sapiens) (UniProt Q15349); experiment: Inhibition of Rsk3(h) at 10.0 µM in the Eurofins Kinase panel; conditions: Compound concentration 10.0 uM
Ribosomal protein S6 kinase alpha-2 (Homo sapiens), sequence (Q15349 whole entry): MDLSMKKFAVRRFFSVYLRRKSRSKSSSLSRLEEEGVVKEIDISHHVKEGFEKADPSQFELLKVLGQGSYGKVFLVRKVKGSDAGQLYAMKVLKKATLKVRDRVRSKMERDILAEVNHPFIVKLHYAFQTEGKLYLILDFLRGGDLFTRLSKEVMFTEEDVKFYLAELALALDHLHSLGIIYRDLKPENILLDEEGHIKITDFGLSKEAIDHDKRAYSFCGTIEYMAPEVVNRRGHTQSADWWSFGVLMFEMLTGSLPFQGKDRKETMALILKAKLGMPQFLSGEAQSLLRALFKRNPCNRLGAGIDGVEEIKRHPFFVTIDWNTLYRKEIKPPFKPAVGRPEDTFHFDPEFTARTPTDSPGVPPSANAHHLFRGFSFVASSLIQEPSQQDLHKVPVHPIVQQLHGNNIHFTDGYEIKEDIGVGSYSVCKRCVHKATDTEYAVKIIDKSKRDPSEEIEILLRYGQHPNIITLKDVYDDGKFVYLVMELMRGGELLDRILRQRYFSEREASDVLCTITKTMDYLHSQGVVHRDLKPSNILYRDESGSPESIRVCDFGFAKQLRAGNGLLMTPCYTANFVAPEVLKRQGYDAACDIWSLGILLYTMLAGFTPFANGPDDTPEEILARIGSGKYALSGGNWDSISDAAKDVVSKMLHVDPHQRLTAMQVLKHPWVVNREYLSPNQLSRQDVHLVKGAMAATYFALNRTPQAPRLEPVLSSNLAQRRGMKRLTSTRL

[30] = molecular target: Serine/threonine-protein kinase 16 (Homo sapiens) (UniProt O75716); experiment: Inhibition of STK16(h) at 10.0 µM in the Eurofins Kinase panel; conditions: Compound concentration 10.0 uM
[31] = molecular target: Testis-specific serine/threonine-protein kinase 1 (Homo sapiens) (UniProt Q9BXA7); experiment: Inhibition of TSSK1(h) at 10.0 µM in the Eurofins Kinase panel; conditions: Compound concentration 10.0 uM
[32] = molecular target: Dual specificity protein kinase TTK (Homo sapiens) (UniProt P33981); experiment: Inhibition of TTK(h) at 10.0 µM in the Eurofins Kinase panel; conditions: Compound concentration 10.0 uM
[33] = molecular target: Serine/threonine-protein kinase VRK2 (Homo sapiens) (UniProt Q86Y07); experiment: Inhibition of VRK2(h) at 10.0 µM in the Eurofins Kinase panel; conditions: Compound concentration 10.0 uM
[34] = molecular target: Estrogen receptor (Homo sapiens) (UniProt P03372); conditions: Compound concentration 10.0 uM
[35] = molecular target: Histamine H1 receptor (Homo sapiens) (UniProt P35367); conditions: Compound concentration 10.0 uM
[36] = molecular target: Mu-type opioid receptor (Homo sapiens) (UniProt P35372); conditions: Compound concentration 10.0 uM
Mu-type opioid receptor (Homo sapiens), sequence (P35372 whole entry): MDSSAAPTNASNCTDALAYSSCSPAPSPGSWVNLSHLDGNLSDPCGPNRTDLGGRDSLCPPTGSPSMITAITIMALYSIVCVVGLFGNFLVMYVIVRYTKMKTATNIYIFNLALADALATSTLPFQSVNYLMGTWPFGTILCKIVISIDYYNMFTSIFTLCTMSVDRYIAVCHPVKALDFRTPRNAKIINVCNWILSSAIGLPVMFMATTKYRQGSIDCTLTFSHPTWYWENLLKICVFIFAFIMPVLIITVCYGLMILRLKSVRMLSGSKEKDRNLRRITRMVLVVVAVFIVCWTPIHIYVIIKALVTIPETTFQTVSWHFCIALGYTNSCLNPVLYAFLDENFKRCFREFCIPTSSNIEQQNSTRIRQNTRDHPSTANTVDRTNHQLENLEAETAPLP

[37] = molecular target: Insulin receptor (Homo sapiens) (UniProt P06213); conditions: Rattus norvegicus; Compound concentration 10.0 uM
Insulin receptor (Homo sapiens), sequence (P06213 28-758 limits assumed): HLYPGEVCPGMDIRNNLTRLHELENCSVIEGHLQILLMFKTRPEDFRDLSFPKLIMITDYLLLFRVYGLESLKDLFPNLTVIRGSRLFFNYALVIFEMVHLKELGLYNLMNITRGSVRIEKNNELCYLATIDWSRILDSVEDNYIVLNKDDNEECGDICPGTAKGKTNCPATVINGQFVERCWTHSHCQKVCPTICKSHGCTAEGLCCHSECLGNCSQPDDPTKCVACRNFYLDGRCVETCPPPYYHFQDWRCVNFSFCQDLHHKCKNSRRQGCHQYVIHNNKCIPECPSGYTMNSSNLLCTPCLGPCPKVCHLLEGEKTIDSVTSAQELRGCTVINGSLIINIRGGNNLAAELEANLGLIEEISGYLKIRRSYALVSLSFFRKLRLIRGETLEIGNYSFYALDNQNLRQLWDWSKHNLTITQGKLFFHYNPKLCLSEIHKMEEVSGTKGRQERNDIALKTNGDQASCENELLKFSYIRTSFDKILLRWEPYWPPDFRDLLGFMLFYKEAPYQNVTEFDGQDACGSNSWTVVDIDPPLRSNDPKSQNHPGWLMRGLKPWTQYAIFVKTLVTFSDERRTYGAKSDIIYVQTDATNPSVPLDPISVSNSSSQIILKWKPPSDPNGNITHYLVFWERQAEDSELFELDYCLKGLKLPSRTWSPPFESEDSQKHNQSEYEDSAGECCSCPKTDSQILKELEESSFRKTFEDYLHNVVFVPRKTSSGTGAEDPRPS
Insulin receptor (Homo sapiens), sequence (P06213 763-1382 limits assumed): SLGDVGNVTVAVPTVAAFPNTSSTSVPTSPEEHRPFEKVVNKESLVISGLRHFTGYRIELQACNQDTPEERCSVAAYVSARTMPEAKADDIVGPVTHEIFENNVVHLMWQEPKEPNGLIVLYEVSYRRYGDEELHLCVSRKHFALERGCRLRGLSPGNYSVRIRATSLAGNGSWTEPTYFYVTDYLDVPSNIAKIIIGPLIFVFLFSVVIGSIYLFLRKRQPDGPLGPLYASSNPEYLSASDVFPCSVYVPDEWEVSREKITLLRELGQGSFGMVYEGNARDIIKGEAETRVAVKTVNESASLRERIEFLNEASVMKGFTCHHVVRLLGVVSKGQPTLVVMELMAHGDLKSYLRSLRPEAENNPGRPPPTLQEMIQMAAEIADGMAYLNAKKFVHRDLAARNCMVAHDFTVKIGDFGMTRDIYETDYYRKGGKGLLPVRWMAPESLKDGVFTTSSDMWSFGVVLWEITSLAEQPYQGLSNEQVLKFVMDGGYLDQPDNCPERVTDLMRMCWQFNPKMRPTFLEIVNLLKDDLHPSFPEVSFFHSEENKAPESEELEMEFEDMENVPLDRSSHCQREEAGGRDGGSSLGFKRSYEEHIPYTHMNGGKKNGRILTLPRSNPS

[38] = molecular target: Androgen receptor (Homo sapiens) (UniProt P10275); conditions: Compound concentration 10.0 uM
[39] = molecular target: 3-phosphoinositide-dependent protein kinase 1 (Homo sapiens) (UniProt O15530); experiment: Inhibition of PDK1(h) at 10.0 µM in the Eurofins Kinase panel; conditions: Compound concentration 10.0 uM

Row | SMILES | inhibition [1] [%] | inhibition [2] [%] | inhibition [3] [%] | inhibition [4] [%] | inhibition [5] [%] | inhibition [6] [%] | inhibition [7] [%] | inhibition [8] [%] | inhibition [9] [%] | inhibition [10] [%] | inhibition [11] [%] | inhibition [12] [%] | inhibition [13] [%] | inhibition [14] [%] | inhibition [15] [%] | inhibition [16] [%] | inhibition [17] [%] | inhibition [18] [%] | inhibition [19] [%] | inhibition [20] [%] | other results
1 | O=c1n(Cc2cncn2-c2cccc(Cl)c2)nc(-c2ccc(Cl)cc2)n1C[C@H](O)C(F)(F)F | 8.43 | -8.94 | 4.95 | -8.47 | -1.4 | 15.4 | -9.4 | -9.92 | 8.74 | 2.81 | 3.99 | -1.83 | 11.3 | 2.63 | -0.4 | 8.45 | -4.95 | -6.31 | 1.06 | -4.66 | inhibition [21]: 6.86%; inhibition [22]: 9.43%; inhibition [23]: -1.49%; inhibition [24]: 2.13%; inhibition [25]: 1.71%; inhibition [26]: 10.6%; inhibition [27]: 27.4%; inhibition [28]: -9.37%; inhibition [29]: -0.87%; inhibition [30]: -0.13%; inhibition [31]: 7.23%; inhibition [32]: -7.11%; inhibition [33]: 10.4%; inhibition [34]: 4%; inhibition [35]: 9%; inhibition [36]: -6%; inhibition [37]: 1%; inhibition [38]: 9%; inhibition [39]: -8.39%
2 | C[C@H](O)c1nc(Cn2nc(-c3ccc(Cl)cc3)n(C[C@H](O)C(F)(F)F)c2=O)nn1-c1cccc(Cl)c1 [PECAVAPTAN] | -1.31 | -3.75 | -5.39 | -8.75 | -0.64 | 15.8 | -3.97 | 0.47 | -1.72 | -1.87 | 5.13 | 6.21 | 11.1 | 0.06 | -0.58 | 6.1 | -2.43 | -2.21 | 2.11 | -2.72 | inhibition [21]: 2.49%; inhibition [22]: 7.88%; inhibition [23]: 1.82%; inhibition [24]: -6.69%; inhibition [25]: 1.59%; inhibition [26]: -5.71%; inhibition [27]: 7.5%; inhibition [28]: -9.36%; inhibition [29]: 9.71%; inhibition [30]: 4.07%; inhibition [31]: -5.64%; inhibition [32]: 2.07%; inhibition [33]: 6.61%; inhibition [34]: 8%; inhibition [35]: -1%; inhibition [36]: 24%; inhibition [37]: -1%; inhibition [38]: 12%; inhibition [39]: -3.55%
